# Experiments:
# [1] = test system: open leg ulcer with fibrous coating; experiment: Treatment of open leg ulcer with fibrous coating with wound dressing soaked with aqueous 1% NCT solution; type: in vivo, human; conditions: Example 3: person, burn accident; dressing soaked with aqueous 1% NCT two times daily
# Method: A human patient suffering from an open leg ulcer with fibrous coating caused by a burn accident was treated two times daily with wound dressing soaked with aqueous 1% NCT solution. […] Microbiological cultures of swabs before and after therapy were sterile.
# [2] = Storage stability of aqueous NCT solutions; type: physicochemical; conditions: 1% (55 mM) aqueous solution stored at 2-4° C.
# Method: (§1) Reagents: Pure NCT as a crystalline sodium salt was dissolved in sterile distilled water to a concentration of 1% (55 mM). Purity was verified by iodometric titration and spectrophotometry. […] Solutions were stored at 2-4° C., where they are stable for 1 year, and allowed to reach room temperature before application to the patients.
# outer ear canal = experiment: Pilot study (open phase IIa): irrigation of the external auditory canal with 1% NCT after tympanoplasty; type: in vivo, human; conditions: 12 patients
# Method: Procedures: Local irrigations of the external auditory canal with 3 ml of 1% N-chlorotaurine solution were performed once daily until the canal was dry.
# as §1
# Study Design: An open phase IIa study was performed in 12 patients after tympanoplasty. They received a single-shot antibiotic therapy with 2 g Spizef (cefotiam) i.v. perioperatively.
# All subjects were treated with 1% N-chlorotaurine.
# Subjects: The study population included 6 female and 6 male human patients, ranging in age from 32 to 66 years (median 48,1 years). Inclusion criteria was status post tympanoplasty. Exclusion criteria included topical treatment with other agents, systemic application of antibiotics or corticoids, pregnancy, and simultaneous participation in another study. No patients had to be withdrawn after inclusion.
# Treatment and Time Course: After removing the ear-tamponade, which remained in place for 2 to 3 weeks postoperatively, 3 ml of the 1% aqueous NCT solution was applied once daily to the outer ear canal. The endpoint of the treatment was defined as a completely dry canal, corresponding to a clinical score of zero (see below for scoring).
# Evaluation and Statistical Analysis: The primary criterion for the judgement of the status of the external meatus was a six-scale clinical score (0-5) based on visual observation via ear microscopy (zero=dry outer ear canal; 5=moist outer ear canal with inflammation).
# The second criterion was subjective pain, ascertained by a visual analogue scale.
# Clinical examination of the outer ear canal was performed daily for detection of moisture, signs of infection, and judgement of epithelisation of the neo-tympanon.
# A completely dry external meatus (score zero) was considered as the endpoint criterion for the termination of the study.
# Before and at the end of the study an audiogram was performed in all patients.
# Moisture and inflammation of the external auditory canal during and after irrigation with NCT were compared to those before treatment using the Wilcoxon test. P-values<0.05 were considered to indicate statistical significance. Due to the limited number of patients no corrections for multiple comparisons were applied.
# oozing ear channel = experiment: Treatment of the oozing ear channel after tympanoplasty with aqueous 1% NCT solution (case reports); type: in vivo, human; conditions: for time until oozing ceased / complete epithelization achieved earlier than by the conventional treatment with fuchsine / incorporation of the temporal fascia: tympanoplasty
# Excerpt: Rinsing the ear channel with NCT solution provokes in general a drying of the ear channel and the tympanoplastic within 1-2 days.
# A human patient with a traumatic perforation of the tympanic membrane was provided with a tympanoplasty. After removing incrustations and granulation tissue, the destroyed tympanic membrane was excised and substituted by a fascia temporalis. After taking away the tamponade, the microbiological culture of a swab from the reconstructed tympanic membrane and the ear channel was sterile. Subsequently, the oozing ear channel was treated one time daily for two days by instillation of 2 mL of aqueous 1% NCT solution. […] The complete epithelization was achieved 3 days earlier than by the conventional treatment with fuchsine.
# A human patient suffering from a perforation of the tympanic membrane caused by a chronic inflammation of the middle ear received tympanoplasty. After removing incrustations and granulation tissue, the destroyed tympanic membrane was excised and substituted by a fascia temporalis. After taking away the tamponade, the microbiological culture of a swab from the reconstructed tympanic membrane and the ear channel was sterile. Subsequently, the oozing and swollen ear channel was treated one time daily for five days by instillation of 2 mL of aqueous 1% NCT solution. […] The complete epithelization was achieved 3 days earlier than by the conventional treatment with fuchsine.
# [3] = pH of aqueous solutions of NCT; type: physicochemical
# Method: as §1
# [4] = 3 ml 1% NCT once daily, score zero = dry outer ear canal
# [5] = Example 1: person, 2 mL aqueous 1% NCT one time daily for two days
# [6] = Example 2: person, 2 mL aqueous 1% NCT one time daily for five days
smiles,measurement,setting,value
"O=S(=O)(O)CCNCl [NCT, N-chlorotaurine]",healing process,[1],went on without problems
same,treatment time until the fibrous coating disappeared,[1],three
same,stability of solutions on storage,[2],1 year
same,dizziness or nystagmus,outer ear canal; 3 ml 1% NCT once daily,No dizziness or nystagmus occurred
same,drying of the outer ear canal,outer ear canal; 3 ml 1% NCT once daily,Rapid drying of the outer ear canal was detected in all patients
same,epithelisation of the new tympanon on ear microscopy,outer ear canal; 3 ml 1% NCT once daily,proceeded regularly without granulation
same,infection in the postoperative course,outer ear canal; 3 ml 1% NCT once daily,No infection occurred
same,time needed for complete epithelisation (mean±SD),outer ear canal; 3 ml 1% NCT once daily,22.6 ± 3.5 days
same,time needed for complete epithelisation (range),outer ear canal; 3 ml 1% NCT once daily,18 to 31 days
same,tolerability of treatment,outer ear canal; 3 ml 1% NCT once daily,tolerated very well by all patients
same,average clinical score (0-5) of the outer ear canal,"outer ear canal; 3 ml 1% NCT once daily, days 2-5 vs. baseline day 1, Wilcoxon test",decreased daily
same,necessary time for achieving a score of zero (mean±SD),outer ear canal; [4],2.75 ± 0.87 days
same,necessary time for achieving a score of zero (range),outer ear canal; [4],2 to 5 days
same,subjective pain,"outer ear canal; 3 ml 1% NCT once daily, visual analogue scale",without occurrence of any pain
same,damage to the inner ear,outer ear canal; audiogram before and after treatment,no signs of damage to the inner ear
same,allergic reactions,outer ear canal; whole period of treatment,no signs of allergic reactions
same,time until oozing ceased,"oozing ear channel; Example 1: person, 2 mL aqueous 1% NCT instilled one time daily for two days",one
same,complete epithelization achieved earlier than by the conventional treatment with fuchsine,oozing ear channel; [5],3 days
same,incorporation of the temporal fascia,oozing ear channel; [5],proceeded without problems
same,time until oozing ceased,"oozing ear channel; Example 2: person, 2 mL aqueous 1% NCT instilled one time daily for five days",three
same,complete epithelization achieved earlier than by the conventional treatment with fuchsine,oozing ear channel; [6],3 days
same,incorporation of the temporal fascia,oozing ear channel; [6],proceeded without problems
same,drying of the ear channel and the tympanoplastic,"oozing ear channel; rinsing the ear channel with NCT solution, in general",1 to 2 days
same,pH,[3],8

# Source: US20080207750A1, “Use of N-Chlorotaurine for Treatment of Oozing Tissue Deficiencies” (Pathogenics LLC, priority 2002, published 2008)
